Reference: patent US20210395256A1, “TYROSINE KINASE INHIBITORS, COMPOSITIONS AND METHODS THERE OF” (Betta Pharmaceuticals Co., Ltd., priority 2018, published 2021)

How the values were obtained:
Type in all cases: in vitro ADME
[1] = Liver microsomes metabolic stability assay, human; settings: human liver microsomes 0.5 mg/mL, 37° C.; for half-life at 2 μM: read-out: t1/2 Human
Procedure, shortened: (§1)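 Pooled human, male rat or male mouse liver microsomes (0.5 mg/mL final) incubated at 37° C with 2 μM compound, with or without 1 mM NADPH. Samples at 0-60 min quenched in cold acetonitrile and analyzed by LC-MS/MS in duplicate. t1/2 derived from ln(% remaining) vs time slope, converted to CLint (μL/min/mg).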

[2] = Liver microsomes metabolic stability assay, rat; settings: male, rat liver microsomes 0.5 mg/mL, 37° C.; for half-life at 2 μM: read-out: t1/2 Rat
Procedure, shortened: as §1

[3] = Plasma protein binding (equilibrium dialysis), rat; settings: pH 7.4, 6 hours dialysis; for fraction unbound at 6 h, 1 μM: read-out: Mean % Bound Rat (converted)
Description: (§2) Example 204 Plasma Protein Binding Measurements
(§3) The plasma protein binding was measured as the following procedure.
(§4) 1) Preparation of 100 mM sodium phosphate and 150 mM NaCl buffer (PBS)
(§5) A basic solution was prepared by dissolving 14.2 g/L Na2HPO4 and 8.77 g/L NaCl in deionized water and the solution could be stored at 4° C. for up to 7 days. An acidic solution was prepared by dissolving 12.0 g/L NaH2PO4 and 8.77 g/L NaCl in deionized water and the solution could be stored at 4° C. for up to 7 days. The basic solution was titrated with the acidic solution to pH 7.4 and store at 4° C. for up to 7 days. pH was checked on the day of experiment and was adjusted if outside specification of 7.4±0.1.
(§6) Frozen plasma was thawed immediately at room temperature.
(§7) The plasma was centrifuged at 3,220 g for 10 minutes to remove clots and supernatant was collected into a fresh tube. The pH of the plasma was checked and recorded.
(§8) Note: a). Only use plasma that has been thawed no more than twice since arrival. b). Only use plasma within the range of pH 7 to pH 8.
(§9) 3) Preparation of working solutions
(§10) The working solutions of test compounds and control compound ketoconazole were prepared in DMSO at the concentration of 200 μM. And then 3 μL of working solution was removed to mix with 597 μL of human, rat or mouse plasma to achieve a final concentration of 1 μM (0.5% DMSO). Plasma samples were vortexed thoroughly.
(§11) 4) Preparation of dialysis membranes
(§12) The dialysis membranes were soaked in ultrapure water for 60 minutes to separate strips, then in 20% ethanol for 20 minutes, finally in dialysis buffer for 20 minutes.
(§13) 5) Procedure for equilibrium dialysis
(§14) The dialysis apparatus was assembled according to the manufacturer's instruction. Each cell was filled with 120 μL of plasma sample and dialyzed against equal volume of dialysis buffer (PBS). The assay was performed in duplicate. The dialysis plate was sealed and incubated in an incubator at 37° C. with 5% CO2 at 100 rpm for 6 hours. At the end of incubation, seal was removed and 50 μL of samples from both buffer and plasma chambers were transferred to wells of a 96-well plate.
(§15) 6) Procedure for sample analysis
(§16) 50 μL of blank plasma was added to each buffer samples and an equal volume of PBS was supplemented to the collected plasma sample. 300 μL of room temperature quench solution (acetonitrile containing internal standards (1S, 100 nM Alprazolam, 500 nM Labetalol and 2 μM Ketoprofen)) was added to precipitate protein. Samples in plate were vortexed for 5 minutes and centrifuged at 3,220 g for 30 minutes at 4° C. And then 100 μL of the supernatant was transferred to a new 96-well plate with 100 μL or 200 μL water (depends on the LC-MS signal response and peak shape) for LC-MS/MS analysis.
(§17) Calculate the percentages of test compound and control compound bound as follows:
(§18) % Free=(Peak Area Ratiobuffer chamber/Peak Area Ratioplasma chamber)*100
(§19) % Recovery=(Peak Area Ratiobuffer chamber+Peak Area Ratioplasma chamber)/Peak Area Ratio total sample*100
(§20) Peak Area Ratiobuffer chamber means the conc for free fraction
(§21) Peak Area Ratioplasma chamber means the conc for both free and bound fraction
(§22) Peak Area Ratiototal sample means the conc for starting sample before incubation

[4] = Plasma protein binding (equilibrium dialysis), mouse; settings: pH 7.4, 6 hours dialysis; for fraction unbound at 6 h, 1 μM: read-out: Mean % Bound Mouse (converted)
Description: as §2, §3, §4, §5, §6, §7, §8, §9, §10, §11, §12, §13, §14, §15, §16, §17, §18, §19, §20, §21, §22

SMILES: Cc1nnc(-c2cnn3ccc(N4CCCC4c4cc(F)ccc4F)nc23)[nH]1 (stereo not drawn) [Comparative compound A, 5-[2-(2,5-Difluorophenyl)pyrrolidin-1-yl]-3-(5-methyl-1H-1,2,4-triazol-3-yl)pyrazolo[1,5-a]pyrimidine, reference compound]
- microsomal CLint at 2 μM [1]: 108 µL/min/mg
- half-life at 2 μM [1]: 12.8 min
- microsomal CLint at 2 μM [2]: 78.5 µL/min/mg
- half-life at 2 μM [2]: 17.7 min
- recovery at 6 h, 1 μM [3]: 93.8%
- fraction unbound at 6 h, 1 μM [3]: 0.0729
- recovery at 6 h, 1 μM [4]: 89.4%
- fraction unbound at 6 h, 1 μM [4]: 0.0488

SMILES: C[C@H](O)c1nnc(-c2cnn3ccc(N4CCC[C@@H]4c4cc(F)ccc4F)nc23)[nH]1 [Compound 4, (S)-1-(5-(5-((R)-2-(2,5-difluorophenyl)pyrrolidin-1-yl)pyrazolo[1,5-a]pyrimidin-3-yl)-4H-1,2,4-triazol-3-yl)ethan-1-ol]
- microsomal CLint at 2 μM [1]: 20.4 µL/min/mg
- half-life at 2 μM [1]: 67.9 min
- microsomal CLint at 2 μM [2]: 29.3 µL/min/mg
- half-life at 2 μM [2]: 47.3 min
- fraction unbound at 6 h, 1 μM [3]: 0.1
- fraction unbound at 6 h, 1 μM [4]: 0.0443

SMILES: CC(C)(O)c1nnc(-c2cnn3ccc(N4CCC[C@@H]4c4cc(F)ccc4F)nc23)[nH]1 [Compound 7, (R)-2-(5-(5-(2-(2,5-difluorophenyl)pyrrolidin-1-yl)pyrazolo[1,5-a]pyrimidin-3-yl)-4H-1,2,4-triazol-3-yl)propan-2-ol]
- microsomal CLint at 2 μM [1]: 11.1 µL/min/mg
- half-life at 2 μM [1]: 124 min
- microsomal CLint at 2 μM [2]: 25.3 µL/min/mg
- half-life at 2 μM [2]: 54.9 min
- recovery at 6 h, 1 μM [3]: 90.8%
- recovery at 6 h, 1 μM [4]: 89.4%
- fraction unbound at 6 h, 1 μM [4]: 0.0929

SMILES: C[C@H](N)c1nnc(-c2cnn3ccc(N4CCC[C@@H]4c4cc(F)ccc4F)nc23)[nH]1 [Compound 11, (S)-1-(5-(5-((R)-2-(2,5-difluorophenyl)pyrrolidin-1-yl)pyrazolo[1,5-a]pyrimidin-3-yl)-4H-1,2,4-triazol-3-yl)ethan-1-amine]
- microsomal CLint at 2 μM [1]: 4.27 µL/min/mg
- microsomal CLint at 2 μM [2]: 5.23 µL/min/mg
- recovery at 6 h, 1 μM [3]: 87.5%
- fraction unbound at 6 h, 1 μM [3]: 0.289
- recovery at 6 h, 1 μM [4]: 85.5%
- fraction unbound at 6 h, 1 μM [4]: 0.244

SMILES: OC1(c2nnc(-c3cnn4ccc(N5CCC[C@@H]5c5cc(F)ccc5F)nc34)[nH]2)CCC1 [Compound 23, (R)-1-(5-(5-(2-(2,5-difluorophenyl)pyrrolidin-1-yl)pyrazolo[1,5-a]pyrimidin-3-yl)-4H-1,2,4-triazol-3-yl)cyclobutan-1-ol]
- microsomal CLint at 2 μM [1]: 9.36 µL/min/mg
- half-life at 2 μM [1]: 148 min
- microsomal CLint at 2 μM [2]: 50 µL/min/mg
- half-life at 2 μM [2]: 27.7 min
- fraction unbound at 6 h, 1 μM [3]: 0.0699
- fraction unbound at 6 h, 1 μM [4]: 0.0397

SMILES: CC(C)(O)Cc1nnc(-c2cnn3ccc(N4CCC[C@@H]4c4cc(F)ccc4F)nc23)[nH]1 [Compound 30, (R)-1-(5-(5-(2-(2,5-difluorophenyl)pyrrolidin-1-yl)pyrazolo[1,5-a]pyrimidin-3-yl)-4H-1,2,4-triazol-3-yl)-2-methylpropan-2-ol]
- microsomal CLint at 2 μM [1]: 16.8 µL/min/mg
- half-life at 2 μM [1]: 82.7 min
- microsomal CLint at 2 μM [2]: 69.6 µL/min/mg
- half-life at 2 μM [2]: 19.9 min
- recovery at 6 h, 1 μM [3]: 92.5%
- fraction unbound at 6 h, 1 μM [3]: 0.174
- recovery at 6 h, 1 μM [4]: 90%
- fraction unbound at 6 h, 1 μM [4]: 0.0887

SMILES: OC1CC(c2nnc(-c3cnn4ccc(N5CCC[C@@H]5c5cc(F)ccc5F)nc34)[nH]2)C1 (stereo partly drawn) [Compound 31, (R)-3-(5-(5-(2-(2,5-difluorophenyl)pyrrolidin-1-yl)pyrazolo[1,5-a]pyrimidin-3-yl)-4H-1,2,4-triazol-3-yl)cyclobutan-1-ol]
- microsomal CLint at 2 μM [1]: 16.4 µL/min/mg
- half-life at 2 μM [1]: 84.6 min
- microsomal CLint at 2 μM [2]: 69.1 µL/min/mg
- half-life at 2 μM [2]: 20.1 min
- recovery at 6 h, 1 μM [3]: 98.9%
- fraction unbound at 6 h, 1 μM [3]: 0.131
- recovery at 6 h, 1 μM [4]: 94.2%
- fraction unbound at 6 h, 1 μM [4]: 0.0998

SMILES: C[C@@H](CO)c1nnc(-c2cnn3ccc(N4CCC[C@@H]4c4cc(F)ccc4F)nc23)[nH]1 [Compound 39, (R)-2-(5-(5-((R)-2-(2,5-difluorophenyl)pyrrolidin-1-yl)pyrazolo[1,5-a]pyrimidin-3-yl)-4H-1,2,4-triazol-3-yl)propan-1-ol]
- microsomal CLint at 2 μM [1]: 17.2 µL/min/mg
- half-life at 2 μM [1]: 80.6 min
- microsomal CLint at 2 μM [2]: 80.2 µL/min/mg
- half-life at 2 μM [2]: 17.3 min
- recovery at 6 h, 1 μM [3]: 89.7%
- fraction unbound at 6 h, 1 μM [3]: 0.116
- recovery at 6 h, 1 μM [4]: 91.3%
- fraction unbound at 6 h, 1 μM [4]: 0.0676
